# From BindingDB's records for patent US12378224 (Dong-A Socio Holdings Co., 2025)
# Molecular target: T1, Tyrosine-protein kinase Mer/Tyrosine-protein kinase receptor UFO/Tyrosine-protein kinase receptor TYRO3 (Human, UniProt P30530+Q06418+Q12866)
# T1 sequence (Q06418 whole entry): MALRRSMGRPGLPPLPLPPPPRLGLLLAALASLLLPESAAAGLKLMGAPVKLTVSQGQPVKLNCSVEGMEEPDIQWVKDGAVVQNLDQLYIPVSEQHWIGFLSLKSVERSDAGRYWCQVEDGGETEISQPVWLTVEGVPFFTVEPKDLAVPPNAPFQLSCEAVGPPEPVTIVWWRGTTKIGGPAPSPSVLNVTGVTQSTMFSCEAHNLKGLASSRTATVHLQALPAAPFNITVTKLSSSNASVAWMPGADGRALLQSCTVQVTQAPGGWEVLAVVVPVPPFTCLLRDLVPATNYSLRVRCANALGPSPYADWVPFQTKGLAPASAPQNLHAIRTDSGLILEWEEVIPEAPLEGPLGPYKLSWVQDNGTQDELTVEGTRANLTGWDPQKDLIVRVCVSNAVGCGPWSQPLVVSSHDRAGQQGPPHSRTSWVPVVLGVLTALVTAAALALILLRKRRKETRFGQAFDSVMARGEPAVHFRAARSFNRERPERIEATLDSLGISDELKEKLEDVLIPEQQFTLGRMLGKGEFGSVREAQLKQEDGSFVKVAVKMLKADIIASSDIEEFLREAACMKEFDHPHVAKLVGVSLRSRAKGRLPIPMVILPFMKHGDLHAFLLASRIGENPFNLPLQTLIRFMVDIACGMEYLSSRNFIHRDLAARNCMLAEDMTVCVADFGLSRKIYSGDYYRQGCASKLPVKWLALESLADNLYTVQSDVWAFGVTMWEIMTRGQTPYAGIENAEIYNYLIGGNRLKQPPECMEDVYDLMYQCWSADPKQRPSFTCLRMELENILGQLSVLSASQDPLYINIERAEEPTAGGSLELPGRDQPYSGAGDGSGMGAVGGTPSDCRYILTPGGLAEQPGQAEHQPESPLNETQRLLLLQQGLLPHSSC
# T1 sequence (P30530 whole entry): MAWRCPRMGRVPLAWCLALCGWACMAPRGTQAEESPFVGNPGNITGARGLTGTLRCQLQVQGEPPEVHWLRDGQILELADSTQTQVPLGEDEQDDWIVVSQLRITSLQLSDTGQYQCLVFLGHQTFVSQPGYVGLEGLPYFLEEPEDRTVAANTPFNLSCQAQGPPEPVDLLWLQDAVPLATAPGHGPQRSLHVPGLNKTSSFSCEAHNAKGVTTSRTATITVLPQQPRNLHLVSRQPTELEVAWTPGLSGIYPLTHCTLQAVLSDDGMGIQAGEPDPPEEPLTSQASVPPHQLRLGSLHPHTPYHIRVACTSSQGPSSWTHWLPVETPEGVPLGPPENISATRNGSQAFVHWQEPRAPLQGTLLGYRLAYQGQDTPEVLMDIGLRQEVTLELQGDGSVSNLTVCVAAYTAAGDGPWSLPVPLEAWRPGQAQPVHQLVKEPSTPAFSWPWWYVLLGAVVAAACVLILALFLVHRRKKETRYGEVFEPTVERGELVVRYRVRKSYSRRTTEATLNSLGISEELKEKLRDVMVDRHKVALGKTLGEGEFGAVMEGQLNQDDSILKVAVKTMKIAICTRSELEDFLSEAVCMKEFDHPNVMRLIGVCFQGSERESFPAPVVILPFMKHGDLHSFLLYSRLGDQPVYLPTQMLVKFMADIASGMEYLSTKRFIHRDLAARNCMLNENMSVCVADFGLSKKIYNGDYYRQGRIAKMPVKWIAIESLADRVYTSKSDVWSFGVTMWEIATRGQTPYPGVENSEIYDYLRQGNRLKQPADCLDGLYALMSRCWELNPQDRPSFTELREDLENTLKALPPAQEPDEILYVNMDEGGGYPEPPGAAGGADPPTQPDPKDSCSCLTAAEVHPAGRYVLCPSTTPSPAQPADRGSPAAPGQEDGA
# T1 sequence (Q12866 whole entry): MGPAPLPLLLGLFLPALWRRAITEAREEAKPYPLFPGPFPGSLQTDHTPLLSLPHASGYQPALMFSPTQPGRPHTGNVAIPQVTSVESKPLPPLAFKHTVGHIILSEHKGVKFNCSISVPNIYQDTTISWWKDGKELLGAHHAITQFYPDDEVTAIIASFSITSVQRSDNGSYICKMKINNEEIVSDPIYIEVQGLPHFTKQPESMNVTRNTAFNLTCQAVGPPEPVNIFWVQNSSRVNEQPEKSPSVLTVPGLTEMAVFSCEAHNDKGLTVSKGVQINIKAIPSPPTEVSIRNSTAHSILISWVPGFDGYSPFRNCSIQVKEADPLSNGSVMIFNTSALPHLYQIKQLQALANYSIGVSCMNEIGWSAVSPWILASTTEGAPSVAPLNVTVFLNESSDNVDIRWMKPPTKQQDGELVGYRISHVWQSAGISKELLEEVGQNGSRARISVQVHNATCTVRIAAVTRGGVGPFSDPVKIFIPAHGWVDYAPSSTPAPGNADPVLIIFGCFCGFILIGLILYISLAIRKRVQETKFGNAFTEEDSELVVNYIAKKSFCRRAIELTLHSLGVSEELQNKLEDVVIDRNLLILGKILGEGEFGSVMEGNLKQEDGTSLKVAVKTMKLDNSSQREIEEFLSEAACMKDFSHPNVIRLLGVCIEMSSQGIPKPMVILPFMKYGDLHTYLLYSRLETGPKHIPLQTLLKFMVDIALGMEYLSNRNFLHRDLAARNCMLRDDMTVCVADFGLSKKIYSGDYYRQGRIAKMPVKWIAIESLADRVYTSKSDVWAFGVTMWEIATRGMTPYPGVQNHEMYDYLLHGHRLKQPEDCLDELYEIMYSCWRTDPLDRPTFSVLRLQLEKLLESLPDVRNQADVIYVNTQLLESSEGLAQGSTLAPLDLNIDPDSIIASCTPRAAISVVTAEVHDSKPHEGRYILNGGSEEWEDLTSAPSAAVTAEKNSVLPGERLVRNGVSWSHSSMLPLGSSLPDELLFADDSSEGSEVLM
# Assay: HTRF Kinase Activity Biochemical Assay
# Method: Table 3: For the SAR (structure-activity relationship) and compound screening, HTRF (Homogeneous Time Resolved Fluorescence) kinase activity assay was employed for all MER, AXL and TYRO3 kinases using Cisbio HTRF KinEASE™-TK kit (Cisbio, USA). The kit includes biotin-labeled TK substrate, streptavidin-XL665, Eu3+-cryptate-labeled TK antibody and HTRF Detection buffer. There are two main steps in the kinase assay: kinase reaction and detection of phosphorylated substrate. The reaction was carried out in white low volume 384-well plate (Corning, USA) with 25 nL compound in dimethyl sulfoxide in each well. […] Then the reaction was stopped after 1 hour incubation at room temperature by adding 5 uL of HTRF Detection buffer which also contains 0.375 nM Eu3+-cryptate-labeled TK antibody and 0.062 uM streptavidin-XL665(SA-XL665) to allow for detection of the phosphorylated peptide product. After 1 h incubation at room temperature, the fluorescence intensity was measured with Envision™ plate reader (PerkinElmer, USA). Upon excitation at 340 nm by UV, the energy from Eu3+ donor of the antibody is transferred to the FRET acceptor XL665, and […] emits light at 665 nm. The level of kinase activity was quantified by the HTRF ratio that calculated from the intensity of emission at 665 nm and emission at 620 nm (fluorescence intensity @ 665 nm/fluorescence intensity @ 620 nm×10,000). The recombinant protein of human MER (528-end) was purchased from Carnabio, Japan. The recombinant human AXL (473-end) and TYRO3 (455-end) were purchased from SignalChem, Canada.
row,Structure (SMILES),IC50 [nM]
1,"Cn1cc(-c2cnc(N)c(C(=O)N[C@@H]3CCN(C(=O)Nc4ccc(C#N)cc4)C3)c2)cn1 [US12378224, Example 7]",> 1000
2,"Nc1ncc(-c2ccc(S(=O)(=O)N3CCC3)cc2)cc1C(=O)N[C@@H]1CCN(C(=O)c2ccc(-c3ccccc3Cl)cc2)C1 [US12378224, Example 574]",> 1000
3,"Nc1ncc(-c2ccnc(N3CCNCC3)c2)cc1C(=O)N[C@@H]1CCN(C(=O)c2ccc(-c3ccc(F)cc3Cl)cc2)C1 [US12378224, Example 581]",< 10
4,"CN1CCN(c2ccc(-c3cnc(N)c(C(=O)N[C@@H]4CCN(C(=O)c5ccc(-c6ccc(F)cc6Cl)cc5)C4)c3)cc2)CC1 [US12378224, Example 585]",< 10
5,"CN1CCC(NC(=O)c2ccc(-c3cnc(N)c(C(=O)N[C@@H]4CCN(C(=O)c5ccc(-c6ccccc6Cl)cc5)C4)c3)cc2)CC1 [US12378224, Example 591]",< 10
6,"CC1CCC(NC(=O)c2ccc(-c3cnc(N)c(C(=O)N[C@@H]4CCN(C(=O)c5ccc(-c6ccccc6Cl)cc5)C4)c3)cc2)CC1 (some centres undefined) [US12378224, Example 592]",> 1000

# Molecular target: T2, Tyrosine-protein kinase Mer/Tyrosine-protein kinase UFO (Human, UniProt P30530+Q12866)
# T2 sequence (P30530 whole entry): T1 sequence (P30530 whole entry)
# T2 sequence (Q12866 whole entry): T1 sequence (Q12866 whole entry)
# Assay: TR-FRET Kinase Activity Biochemical Assay
# Excerpt: Table 2: For the SAR (structure-activity relationship) and compound screening, LanthaScreen™ TR-FRET (Time-Resolved fluorescence energy transfer) assay was employed using the phospho-tyrosine specific Terbium (Tb)-labelded antibody with a fluorescein labeled poly-GT (glutamate-tyrosine) as a substrate. Upon excitation at 340 nm by UV, the energy from Tb donor of the antibody is transferred to the fluorescein of the phosphorylated poly GT substrate, and fluorescein emits light at 520 nm. The ratio between the intensity of primary emission at 495 nm and that of secondary emission at 520 nm was used to quantify the level of kinase activity. The recombinant proteins of human c-MER and AXL catalytic domains, Fluorescein-labeled poly-GT substrate, Tb-labeled anti-phosphorylated tyrosine antibodies, the kinase assay buffer, and 0.5M EDTA solution were purchased (Life technologies, USA). The TR-FRET assays were carried out in the white low volume 384-well plate (Corning, USA). […] 10 mM EDTA was added to terminate the enzyme reaction, and the level of phosphorylation of poly-GT substrate was determined following 30 min incubation with 2 nM Tb-labeled antibody. The fluorescence intensity was measured with Envision™ plate reader (PerkinElmer, USA).
row,Structure (SMILES),IC50 [nM]
1,"Cn1cc(-c2cnc(N)c(C(=O)N[C@@H]3CCN(C(=O)c4ccc(-c5cccc(Cl)c5Cl)cc4)C3)c2)cn1 [US12378224, Example 369]",< 10
2,"CN1CCN(Cc2ccc(-c3cnc(N)c(C(=O)N[C@@H]4CCN(C(=O)c5ccc(-c6ccccc6Cl)cc5)C4)c3)cc2)CC1 [US12378224, Example 572]",< 10
3,"CN1CCC(CNC(=O)c2ccc(-c3cnc(N)c(C(=O)N[C@@H]4CCN(C(=O)c5ccc(-c6ccccc6Cl)cc5)C4)c3)cc2)C1 (some centres undefined) [US12378224, Example 594]",< 10
